Patent US20080020041A1, “Enteric Coated Compositions that Release Active Ingredient(s) in Gastric Fluid and Intestinal Fluid” (priority 2004, published 2008)
Counter-ions that a name gives are not always drawn. Like-named read-outs stand apart in the source and are kept apart here.

Assays:
[1] = fitted from available plasma data (PDR), used in simulations
From the text: These parameters are volume of distribution divided by fraction of dose absorbed (V/F), absorption rate constant (ka), and elimination rate constant (kel).

[2] = commercial mixed pellets, cited from earlier work
[3] = disintegrating tablets from pellets coated with cellulose acetate phthalate; cited from earlier work
[4] = Hydrochlorothiazide bio-study: urinary excretion, urine output and side effects after IR or GRD; assay type: in vivo, human; details: same dose, drug released in gastric fluid (GRD)
Procedure: Two formulations for hydrochlorthiazide (an immediate release formulation (IR) and a gastric retention device (GRD) containing sustained release formulations (SR)) were administered in the bio-study (bioavailability study). A commercial tablet containing 50 mg of HCTZ was used as an IR control, and spray-coated beads equivalent to 50 mg of HCTZ were formulated for slow drug release (SR) and included in the GRF. Bioavailability and pharmacodynamics of HCTZ from a GRD were compared to those from an IR.
Monitoring concentrations of hydrochlorthiazide in the urine of healthy adult volunteers allowed comparison of the relative bioavailability of hydrochlorthiazide from the GRD formulation and from a conventional tablet. […] An IR was given once and the GRD was repeated twice to test the reproducibility of the new dosage form. A 50-mg dose was chosen for the study because it was in the range of the recommended dose from the PDR (Physician's Desk References) and it produced concentrations high enough to make HPLC analysis efficient. Six subjects participated in the study, 4 healthy males and 2 healthy females. They were not allowed any food or drink containing caffeine, nor alcohol or other medications. Smokers and vegetarians were not included. […] The volume of urine collected was measured in order to calculate total amount of drug recovered.

[5] = Protocol: All data fittings were performed on data from immediate-release formulations using WinNonlin software, version 3.2 (Pharsight Corporation, Mountain View, Calif.).
[6] = cited from earlier work
[7] = 60 mg immediate-release riboflavin, fed subjects; cited from earlier work
[8] = prolonged release wax matrix formulation; cited from earlier work
[9] = fitted to literature data of immediate-release formulation

Q: Which ka [1] does the source give for `C[C@H](N)Cc1ccccc1` [d-Amphetamine] here?
A: Its ka is 0.744 h⁻¹.

Q: And the “Observed Cmax” value ([2]; Fasted, 30 mg)?
A: Its value is 40.2 ng/mL.

Q: What about the “Observed Cmax” value ([2]; Fed, 20 mg) of the same compound?
A: The value was 25.3 ng/mL.

Q: Which “Drug liberated within 2 hours in artificial gastric fluid” value [3] does the source give for `Cc1cc(NS(=O)(=O)c2ccc(N)cc2)no1` [sulfametoxazole] here?
A: The value was “more than 10%”.

Q: With `NS(=O)(=O)c1cc2c(cc1Cl)NCNS2(=O)=O` [Hydrochlorothiazide] as the compound, how does the Adverse reactions reported [4] read?
A: Its Adverse reactions reported is “No adverse reactions were reported”.

Q: Which results are given for `CNC(=C[N+](=O)[O-])NCCSCc1ccc(CN(C)C)o1` [Ranitidine hydrochloride]?
A: absorption rate constant ([5]; human, in vivo): 0.641; kel ([5]; human, in vivo): 0.239 h⁻¹

Q: Which results are given for `CC(=O)Oc1ccc(C(c2ccc(OC(C)=O)cc2)c2ccccn2)cc1` [bisacodyl]?
A: Liberation of bisacodyl in 0.1 M HCl ([6]; coating of mixture of Eudagrit L and Eudgrit NE): approximately 4 % w/w; Liberation of bisacodyl in phosphate buffer within 45 min ([6]; pH 6.8, polymer 1): 100%; Liberation of bisacodyl in phosphate buffer within 45 min ([6]; pH 6.8, polymer 2): 40%; Liberation of bisacodyl in phosphate buffer ([6]; pH 7.2, polymer 2): 100%; Bisacodyl liberated in acidic media after tableting ([6]; pellets coated with 25% w/w of one of the new polymers): 4-5 % w/w

Q: Which Bioavailability [7] does the source give for `Cc1cc2nc3c(=O)[nH]c(=O)nc-3n(C[C@H](O)[C@H](O)[C@H](O)CO)c2cc1C` [riboflavin] here?
A: Its Bioavailability is 36.4%.

Q: For `CC1(C)S[C@@H]2[C@H](NC(=O)[C@H](N)c3ccc(O)cc3)C(=O)N2[C@H]1C(=O)O` [amoxicillin], which “Amoxicillin released in 6 hours” value [8] is on record?
A: Its value is 19%.

Q: Which “absorption rate constant” value [5, 9] does the source give for `Cc1cc2nc3c(=O)[nH]c(=O)nc-3n(C[C@H](O)[C@H](O)[C@H](O)COP(=O)(O)O)c2cc1C` [Riboflavin-5-phosphate] here?
A: The value was 3.67.

Q: What about the kel [5, 9] of the same compound?
A: The kel was 0.32 h⁻¹.
